Test results taken from patent publication US20160151503A1, “COMPOSITIONS AND PREPARATION METHODS OF LOW MELTING IONIC SALTS OF POORLY-WATER SOLUBLE DRUGS” (MW ENCAP LIMITED, priority 2013, published 2016).
Counter-ions that a name gives are not always drawn.

Assays:
[1] = Drug solubility in exemplar lipid formulations (SEDDS) and individual excipients
Protocol: Where lipid based formulations have been employed, formulations were made up in glass vials by weighing the appropriate quantities of excipient directly into the vial, followed by mixing
In some cases the solubility of the low melting ionic salt in individual excipients was also measured.
Drug solubility in each formulation was assessed in one of two ways. Firstly, quantitatively, by incubating formulations with excess drug at 37 degrees and taking samples over time. These samples were centrifuged to pellet solid material and the drug concentration in the formulation assessed by HPLC.

[2] = In vitro dispersion and digestion of cinnarizine decylsulfate SEDDS solution in simulated intestinal fluid; format: in vitro ADME; details: after in vitro dispersion or digestion of SEDDS solution in SIF
[3] = Equilibrium solubility in colloids formed by in vitro digestion of blank SEDDS in simulated intestinal fluid; format: physicochemical; details: colloids from 60 min digestion of blank LC2 SEDDS (1 g in 39 mL SIF), pH 6.5, 37° C.
Protocol: In this experiment blank SEDDS formulation (1 g) was dispersed in 39 mL of simulated intestinal fluid. (SIF) (2 mM Tris-maleate, 1.4 mM CaCl2.H2O, 150 mM NaCl, 3 mM NaTDC, 0.75 mM PC, pH 6.5, 37° C.) and pancreatic enzymes added to stimulate digestion. The experiment was conducted at 37° C. and allowed to continue for 60 mins. […] From the data in Table 5.3 below it is apparent that synthesis of the IL increases drug affinity for intestinal colloidal phases and therefore increases solubilisation in the GI tract—consistent with the increases in exposure seen in FIG. 3

[4] = Itraconazole plasma pharmacokinetics after oral administration of comparative formulations to rats; format: in vivo; details: same equivalent dose of ITZ FB, solution in SEDDS
Protocol: Note that the very low solubility of ITZ free base precludes formulation as a lipid based formulation. It is only via isolation as the IL that this possibility is realised since the solubility of the ITZ IL in lipid formulations is very much higher. All were dosed at the same dose (20 mg/kg).
The isolation of ITZ as the docusate IL increased drug solubility in the SEDDS formulation and allowed administration as a Solution in the SEDDS formulation. […] ITZ FB was not sufficiently soluble in the SEDDS formulation to allow administration as a solution in the SEDDS at any reasonable dose and was therefore dosed as a suspension in the SEDDS formulation and also as an aqueous suspension. The same dose was administered as the commercial Sporanox formulation of ITZ FB
It is apparent that the ITZ IL formulation allowed administration of a much higher ITZ dose as a solution in a lipid based formulation and that this in turn led to much higher plasma levels than the equivalent suspension formulation of the free base, or the commercial Sporanox formulation.

[5] = SEDDS: 15% soybean oil, 15% Maisine 35-1, 60% Cremophor EL, 10% EtOH
[6] = Table 8 Meclofenamic Acid, MC SEDDS
[7] = Table 7 Tolfenamic Acid, MC SEDDS

Compound: C(=C/c1ccccc1)/CN1CCN(C(c2ccccc2)c2ccccc2)CC1 [Cinnadzine free base, Cinnarizine, reference compound]
- cinnarizine solubility in the lipid vehicle [1, 5]: approximately 44 mg/g

Compound: C(=C\c1ccccc1)/CN1CCN(C(c2ccccc2)c2ccccc2)CC1 [Cinnarizine-decylsulfate, Cinnarizine Decylsulfate]
- incorporated drug remaining solubilized in an aqueous phase [2]: more than 95%
- miscibility with the SEDDS formulation [1, 5]: essentially miscible

Compound: COc1ccc2c(c1)[C@]13CCCC[C@@H]1[C@H](C2)N(C)CC3 [Dextromethorphan, reference compound]
- Solubility in MC SEDDS (mg/g) Free base equiv. ([1]; Table 5 Dextromethorphan and Metformin, MC SEDDS): <50 mg/g

Compound: CCC(C)n1ncn(-c2ccc(N3CCN(c4ccc(OCC5COC(Cn6cncn6)(c6ccc(Cl)cc6Cl)O5)cc4)CC3)cc2)c1=O (stereo not shown) [Itraconazole free base, Itraconazole, reference compound]
- Solubility in simulated intestinal fluid plus lipid digestion products ([3]; listed as ITZ FB): <47 µg/mL

Compound: CCC(C)n1ncn(-c2ccc(N3CCN(c4ccc(OCC5COC(Cn6cncn6)(c6ccc(Cl)cc6Cl)O5)cc4)CC3)cc2)c1=O (stereo not shown) [Itraconazole- diocytlsulfosuccinate, Itraconazole Dioctylsulfosuccinate (Docusate)]
- plasma levels compared to the commercial formulation [4]: ~2.5 fold
- Solubility in simulated intestinal fluid plus lipid digestion products ([3]; listed as ITZ-docusate IL): 1720 ± 150 µg/mL
- Solubility in LC^2 SEDDS (mg/g) itraconazole equiv. ([1]; LC2 SEDDS: 30% SBO, 30% Maisine, 30% CrEL, 10% EtOH): 159.8 mg/g

Compound: Cc1ccc(Cl)c(Nc2ccccc2C(=O)O)c1Cl [Meclofenamic acid, 1- hexadecyl-3- methylpyridinium salt] [Meclofenamic Acid, 1-hexadecyl-3-methylpyridinium Salt]
- Solubility in MC^2 SEDDS (mg/g) Free base equiv. [1, 6]: >240 mg/g

Compound: Cc1ccc(Cl)c(Nc2ccccc2C(=O)O)c1Cl [Meclofenamic acid, N-decyl-N,N- dimethyldodecylammonium salt] [Meclofenamic Acid, N-decyl-N,N-dimethyldodecylammonium Salt]
- Solubility in MC^2 SEDDS (mg/g) Free base equiv. [1, 6]: >240 mg/g

Compound: Cc1c(Cl)cccc1Nc1ccccc1C(=O)O [Tolfenamic acid dodecylammonium salt, Tolfenamic Acid, Dodecylammonium Salt]
- Solubility in MC^2 SEDDS (mg/g) Free base equiv. [1, 7]: >50 mg/g

Compound: Cc1c(Cl)cccc1Nc1ccccc1C(=O)O [Tolfenamic acid, N-butyl- N,N-dimethylbutyl-N- dodecylammoni] [Tolfenamic Acid, N-butyl-N,N-dimethylbutyl-N-dodecylammonium Salt]
- Solubility in MC^2 SEDDS (mg/g) Free base equiv. [1, 7]: >200 mg/g

Compound: Cc1c(Cl)cccc1Nc1ccccc1C(=O)O [Tolfenamic acid, N-decyl-N,N- dimethyldodecylammonium salt] [Tolfenamic Acid, N-decyl-N,N-dimethyldodecylammonium Salt]
- Solubility in MC^2 SEDDS (mg/g) Free base equiv. [1, 7]: >200 mg/g
